Data on one molecule can be found in patent publication US20260207623A1, “USE OF ESTETROL IN HEPATICALLY IMPAIRED PATIENTS” (ESTETRA SRL, priority 2022, published 2026).

This assay concerns post-menopausal women. As to the kind of experiment: Example 3: menopause-specific Quality of Life (MENQOL) questionnaire. Type of assay: in vivo, human.

As for `C[C@]12CC[C@@H]3c4ccc(O)cc4CC[C@H]3[C@@H]1[C@@H](O)[C@@H](O)[C@@H]2O.O` [E4 monoh.], for the setting “15 mg”, the “MENQOL Anxious or Nervous, Estimate vs Placebo” value was −0.6100; the “MENQOL Being Impatient with Others, Estimate vs Placebo” value is given as −0.4911; the “MENQOL Difficulty sleeping, Estimate vs Placebo” value is on record as −0.7011; the “MENQOL Dissatisfied Personal Life, Estimate vs Placebo” value is listed as −0.8163. Where the note is “15 mg”, the “MENQOL Physical Domain, Aching in muscles, Estimate vs Placebo” value is listed as −0.1858; the “MENQOL Psychosocial Domain Score, Estimate vs Placebo” value is reported as −0.5211; the “Total MENQOL Score, Estimate vs Placebo” value was −0.7068. Also, under “20 mg”, the “MENQOL Anxious or Nervous, Estimate vs Placebo” value is −0.8197; the “MENQOL Being Impatient with Others, Estimate vs Placebo” value is −0.5656; the “MENQOL Difficulty sleeping, Estimate vs Placebo” value is −0.7258; the “MENQOL Dissatisfied Personal Life, Estimate vs Placebo” value is on record as −1.2719. Under “20 mg”, the “MENQOL Physical Domain, Aching in muscles, Estimate vs Placebo” value was −0.5576; the “MENQOL Psychosocial Domain Score, Estimate vs Placebo” value is reported as −0.6056; the “Total MENQOL Score, Estimate vs Placebo” value is on record as −0.7155.
